Measured values as given in patent US20240132955A1, “BENIGN SCAR-FORMING CLEAVABLE LINKERS” (Ultima Genomics, Inc., priority 2021, published 2024).

How the values were obtained:
Assay type in all cases: biochemical
[1] = system: template nucleic acid sequence; test: Sequencing assays with different capping reagents (Example 6, FIG. 11); conditions: for fluorescence intensities for subsequent incorporation steps: capping between flows, compared with assay without capping reagents
Experimental: Extension and sequencing performance were tested for a set of labeled nucleotides and capping reagents. The labeled nucleotides used in this example consisted of the dye-linkers as shown in FIG. 9A on each of the four nucleotides. A set of sequencing assays were performed by extending a primer against a template nucleic acid sequence in the presence of alternating flows of single fluorescently labeled nucleotides provided as cycles of U, A, C, and then G. In between each flow, the fluorescent labels were detected, cleaved, and optionally capped with one of ethyl propiolate (EP), iodoacetamide (IAc), methyl methanethiosulfonate (MMTS), or dipyridyl disulfide (DPDS). Each labeled nucleotide flow was then followed by a “dark tap” flow consisting of 100% unlabeled nucleotides to maintain phasing.
FIG. 11 summarizes the results of the sequencing assays in table 1100. Table 1100 provides the results of uridine, adenosine, cytidine, and guanosine incorporation steps performed without any capping agents or in the presence of different capping agents. Assay A illustrates results from sequencing assays performed without capping reagents. Following a high-efficiency first nucleotide incorporation step with labeled uridine, subsequent nucleotide incorporation steps were suppressed, including subsequent uridine additions.

[2] = system: template strand comprising the 3′ sequence TCAGTGGTTG; test: Sequencing assay with capping reagent DPDS in U dark tap flows (Example 5); conditions: DPDS only in U dark tap flows; 100% labeled U, 10% A, 20% C, 10% G
Description: In this example, a set of labeled nucleotide reagents were contacted to a primer hybridized to a template strand comprising the 3′ sequence TCAGTGGTTG under conditions suitable for extension. Fluorescently labeled adenosine, cytidine, and guanosine nucleotides were of the structure indicated in FIG. 10A, while labeled uridine nucleotides were of the structure provided in FIG. 10B. Different canonical nucleotide types were provided in separate, sequential flows, starting with uridine (U), followed by adenosine (A), cytidine (C), and finally guanosine (G), before repeating the cycle beginning again with U. Flows contained anywhere from 10% to 100% labeled nucleotides, with the remaining nucleotides provided in their natural, unlabeled form. In between each flow, the fluorescent labels were detected, cleaved, and optionally capped. Each labeled nucleotide flow was then followed by a “dark tap” flow consisting of 100% unlabeled nucleotides in order to maintain phasing.
FIG. 10E summarizes the sequencing results of an assay utilizing flows with 100% labeled U, 10% labeled A, 20% labeled C, 10% labeled G, and the capping reagent DPDS. provided in only the U “dark tap” nucleotide flows. […] This was likely due to capping reagent cleavage from the nucleotide scars, as the linker cleavage reagent was likely also active in removing caps from scar moieties. […]

[3] = system: template nucleic acid starting with AGTCTTTGGGTT; test: Sequencing assays with capping or immolating linkers (Example 9, FIG. 16); conditions: DPDS in U dark tap flows; 100% labeled U, 10% A, 20% C, 10% G; compared to FIG. 16A
Experimental: In this example, a set of sequencing assays were performed by extending a primer against the same template nucleic acid starting with AGTCTTTGGGTT in the presence of alternating flows of single fluorescently labeled nucleotides provided as cycles of U, A, C, and then G. In between each flow, the fluorescent labels were detected, cleaved, and optionally capped with dipyridyl disulfide (DPDS). Each labeled nucleotide flow was then followed by a “dark tap” flow consisting of 100% unlabeled nucleotides to maintain phasing. Furthermore, some assays utilized nucleotides with immolating linkers.
In each figure, the y-axes provide fluorescence intensity following labeled nucleotide incorporation, and the four plots (from top to bottom) separately provide the results of uridine, adenosine, cytidine, and guanosine incorporation steps, with individual cycles progressing from left to right. In particular, a closer look is taken at the first 4 flow-cycles of U-A-C-G, where nucleotides are expected to be incorporated in the order of T-C (cycle 1; U, A, C, G flows being a complete single cycle), A-G (cycle 2), AAA-CCC (cycle 3), AA (cycle 4). Here nucleotides incorporated in each U-A-C-G flow-cycle are separated with square brackets. […]

Molecule | fluorescence intensities for subsequent incorporation steps [1] | incorporation efficiency for the next flow (A) [2] | effectiveness as capping reagent ([1]; among EP, IAc, MMTS, DPDS) | fluorescence intensities from subsequent nucleotide incorporations, comparison among capping assays ([1]; assays B-E) | labeled A incorporation [3]
NC(=O)CI [IAc, iodoacetamide] | high intensities |  |  |  | 
C#CC(=O)OCC [EP, ethyl propiolate] | high intensities |  |  |  | 
dipyridyl disulfide [DPDS] | high intensities | increased the incorporation efficiency for the next flow | most effective | highest intensities | greatly enhanced
